Reference: patent publication US12595280B2, “Phosphoramidates for the treatment of hepatitis B virus” (priority 2014, dated 2026)
Like-named read-outs stand apart in the source and are kept apart here.

Assays:
HBV = HBV efficacy assay: viral DNA in HepG2.2.15 supernatant by qPCR; type: cell-based; conditions: Hepatitis B virus
Protocol: HepG2.2.15 cells (100 μL) in RPMI1640 medium with 10% fetal bovine serum was added to all wells of a 96-well plate at a density of 1×10^4 cells per well and the plate was incubated at 37° C. in an environment of 5% CO2 for 24 hours. Following incubation, six ten-fold serial dilutions of test compound prepared in RPMI1640 medium with 10% fetal bovine serum were added to individual wells of the plate in triplicate. Six wells in the plate received medium alone as a virus only control. The plate was incubated for 6 days at 37° C. in an environment of 5% CO2. The culture medium was changed on day 3 with medium containing the indicated concentration of each compound. One hundred microliters of supernatant was collected from each well for analysis of viral DNA by qPCR and cytotoxicity was evaluated by XTT staining of the cell culture monolayer on the sixth day.
Ten microliters of cell culture supernatant collected on the sixth day was diluted in qPCR dilution buffer (40 μg/mL sheared salmon sperm DNA) and boiled for 15 minutes. Quantitative real time PCR was performed in […] using an Applied Biosystems 7900HT Sequence Detection System and the supporting SDS 2.4 software. Five microliters (5 μL) of boiled DNA for each sample and serial 10-fold dilutions of a quantitative DNA standard were subjected to real time Q-PCR using Platinum Quantitative PCR SuperMix-UDG (Invitrogen) and specific DNA oligonucleotide primers (IDT, Coralville, […]) HBV-AD38-qF1 (5′-CCGTCTGTGCCTTCTCATCTG-3′) (SEQ ID NO: 1), HBV-AD38-qR1 (5′-AGT CCA AGA GTY CTC TTA TRY AAG ACC TT-3′) (SEQ ID NO: 2), and HBV-AD38-qP1 (5′-FAM CCG TGT GCA/ZEN/CTT CGC TTC ACC TCT GC-3′BHQ1) (SEQ ID NO: 3, underlined portion only) at a final concentration of 0.2 μM for each primer in a total reaction volume of 15 μL. The HBV DNA copy number in each sample was interpolated from the standard curve by the SDS.24 software and the data were imported into an Excel spreadsheet for analysis.

[1] = system: HBV encoded polymerase (Hepatitis B virus genotype D subtype ayw); conditions: cited from earlier work
Chain of HBV encoded polymerase (Hepatitis B virus genotype D subtype ayw) (P03156 whole entry): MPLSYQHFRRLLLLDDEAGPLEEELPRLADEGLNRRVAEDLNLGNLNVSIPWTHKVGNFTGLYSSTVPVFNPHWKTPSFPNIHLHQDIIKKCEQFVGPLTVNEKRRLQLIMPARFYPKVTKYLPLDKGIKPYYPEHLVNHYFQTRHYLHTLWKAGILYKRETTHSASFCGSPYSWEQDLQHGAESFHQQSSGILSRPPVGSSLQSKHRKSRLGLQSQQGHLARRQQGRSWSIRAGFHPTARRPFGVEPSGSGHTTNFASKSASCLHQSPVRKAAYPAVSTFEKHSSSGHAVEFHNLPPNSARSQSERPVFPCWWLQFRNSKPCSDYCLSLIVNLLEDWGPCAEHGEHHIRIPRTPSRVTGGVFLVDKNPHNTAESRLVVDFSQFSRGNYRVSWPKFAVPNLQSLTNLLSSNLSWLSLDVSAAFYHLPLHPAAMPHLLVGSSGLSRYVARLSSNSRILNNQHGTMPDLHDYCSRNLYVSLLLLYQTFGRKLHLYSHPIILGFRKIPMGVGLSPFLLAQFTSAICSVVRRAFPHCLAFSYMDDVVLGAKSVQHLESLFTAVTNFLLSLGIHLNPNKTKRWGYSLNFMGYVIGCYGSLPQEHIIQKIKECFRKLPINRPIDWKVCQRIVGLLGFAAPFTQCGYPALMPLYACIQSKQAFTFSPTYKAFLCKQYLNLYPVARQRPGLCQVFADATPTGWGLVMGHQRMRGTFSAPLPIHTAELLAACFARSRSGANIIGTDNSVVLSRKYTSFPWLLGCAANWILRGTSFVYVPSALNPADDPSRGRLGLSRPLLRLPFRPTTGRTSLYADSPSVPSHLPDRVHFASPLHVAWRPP

[2] = human, in vivo; cited from earlier work
[3] = HepG2.2.15, 144 h, read-out: HBV Efficacy Assay EC50 (μM)
[4] = 144 h, HepG2.2.15 cells, 6 days, viral DNA in supernatant by qPCR, read-out: HBV Efficacy Assay EC50

| SMILES | EC50 (HBV; [3]) | further results |
| --- | --- | --- |
| Cc1cn([C@H]2O[C@@H](CO[P@@](=O)(N[C@@H](C)C(=O)OC(C)C)Oc3ccccc3)[C@H](O[P@@](=O)(N[C@@H](C)C(=O)OC(C)C)Oc3ccccc3)[C@H]2F)c(=O)[nH]c1=O | 2.9 µM |  |
| Cc1cn([C@H]2O[C@@H](CO[P@@](=O)(N[C@@H](C)C(=O)OC(C)C)Oc3ccccc3)[C@H](O)[C@H]2F)c(=O)[nH]c1=O | 1.71 µM |  |
| Cc1cn([C@H]2O[C@@H](COP(=O)(O)OP(=O)(O)OP(=O)(O)O)C(O)C2F)c(=O)[nH]c1=O (some centres unmarked) [clevudine triphosphate, Clevudine-5′-Triphosphate] |  | mode of inhibition of the HBV encoded polymerase [1]: competitive non-substrate inhibitor |
| Cc1cn([C@H]2O[C@@H](CO[P@@](=O)(N[C@@H](C)C(=O)OC(C)C)Oc3ccccc3)C(O)C2F)c(=S)[nH]c1=O (some centres unmarked) | > 100 µM |  |
| Cc1cn([C@H]2O[C@@H](CO)[C@H](O)[C@H]2F)c(=O)[nH]c1=O | 0.46 µM |  |
| Cc1cn([C@H]2O[C@@H](CO)[C@H](O)[C@H]2F)c(=O)[nH]c1=O [Clevudine] |  | adverse effect in patients [2]: drug-related skeletal myopathy |
| Nc1ccn([C@@H]2CS[C@H](CO)O2)c(=O)n1 |  | EC50 (HBV; [4]): 0.14 µM |
| Cc1cn([C@H]2O[C@@H](CO[P@](=O)(N[C@@H](C)C(=O)OC(C)C)Oc3ccccc3)C(O)C2F)c(=S)[nH]c1=O (some centres unmarked) | > 100 µM |  |
| Cc1cn([C@H]2O[C@@H](CO[P@](=O)(N[C@@H](C)C(=O)OC(C)C)Oc3ccccc3)[C@H](O[P@](=O)(N[C@@H](C)C(=O)OC(C)C)Oc3ccccc3)[C@H]2F)c(=O)[nH]c1=O | 2.39 µM |  |
| Cc1cn([C@H]2O[C@@H](CO[P@](=O)(N[C@@H](C)C(=O)OC(C)C)Oc3ccccc3)[C@H](O)[C@H]2F)c(=O)[nH]c1=O | 4.29 µM |  |
| Cc1cn([C@H]2O[C@@H](CO)C(O)C2F)c(=S)[nH]c1=O (some centres unmarked) |  | EC50 (HBV; [4]): > 100 µM |
